# Data taken from patent publication US7390625B2, “Apoptosis-associated protein and use thereof” (Takeda Pharmaceutical Company Limited, priority 2002, dated 2008).
# Peptide text beside a SMILES is read from it. * marks the point of attachment. Cbz = O=C(OCc1ccccc1)*; CH2F = FC*
# Test system: PAE-ABP1 cells
# Test: Cell death assay in PAE-ABP1 cells after removal of tetracycline
# Format: cell-based, porcine
# Conditions: 50 μM, 18 hours after tetracycline removal
# Description: FIGS. 7A-B show the induction of cell death by ABP1 in PAE-ABP1 cells. FIG. 7A: Phase contrast photomicrographs at 36 hours after cultivation of PAE-ABP1 cells in the presence (+) and absence (−) of tetracycline (Tet) are shown. FIG. 7B: The ratio (%) of cell death from cultivation in the presence of tetracycline (O hour) and at 24 hours and 48 hours after removal of tetracycline.
# FIGS. 9A-B show the caspase dependency of cell death by ABP1. FIG. 9A: PAE-ABP1 cells were cultivated in the absence of tetracycline, and caspase-3 activity was measured after 0, 12, 24, and 36 hours. The results are shown as relative values with the value in the presence of tetracycline taken as 1. FIG. 9B: PAE-ABP1 cells were treated with zVAD-fmk (50 μM) simultaneously with removal of tetracycline, and the ratio (%) of dead cells was quantified. Cell death assay was conducted at 18 hours after removal of tetracycline. […]
# When these cells were cultured in the absence of tetracycline, cell death was induced with the expression of the ABP1 protein, as in the transient expression of the ABP1 protein in HeLa cells (FIG. 7A). The ratio of dead cells to all cells (the ratio of cells showing a morphological sign of cell death to all cells was determined under a microscope; the results were shown as the mean for three visual fields) was determined to be about 55% at 48 hours after removal of tetracycline (FIG. 7B).
compound,measurement,value
"COC(=O)C[C@H](NC(=O)[C@H](C)NC(=O)[C@@H](NC(=O)OCc1ccccc1)C(C)C)C(=O)CF [zVAD-fmk, reference compound] (Cbz-Val-Ala-Asp(OMe)-CH2F)",suppression of cell death caused by ABP1,almost completely suppressed
